Earlier results, collected in patent US4886800A, “Substituted cinnoline derivatives as CNS depressants” (ICI Americas Inc., priority 1985, dated 1989).

Test system: specific [3H]flunitrazepam binding, lysed mitochondrial-synaptosomal (P2) fraction of cerebral cortex
Settings: reference behaviour stated in the description of the test

SMILES	effect on flunitrazepam binding
CCCCNc1c(C(=O)OCC)cnc2c1cnn2CC [cartazolate]	enchancement of the binding
CCCCNc1c(C(=O)OCC)c(C)nc2c1cnn2CC [tracazolate]	enchancement of the binding
